Laboratory results as given in patent US11389438B2 (CHDI Foundation, Inc., priority 2019, dated 2022).
Like-named read-outs stand apart in the source and are kept apart here.

How the values were obtained:
[1] = molecular target: pre-formed polyQ46 or Exon1-polyQ46 aggregates (mHTT) (Homo sapiens, UniProt P42858, INS38QQQQQQQQQQQQQQQQQQQQQQQQQ); assay: Q46_RBA radioligand binding assay (displacement of [3H]-radioligand)
Method: Binding of W to mHTT. A radioligand binding assay was developed to screen for compounds which can efficiently displace a radioligand detailed elsewhere (see, e.g., U.S. Patent Publication No. from US 2017/0292150) pre-formed polyQ46 or Exon1-polyQ46 aggregates (Q46_RBA).
Aggregation of polyQ peptides is initiated by cleavage of the tag from a GST-polyQ46 or from a MBP-Exon1-polyQ46 fusion protein. The pre-formed aggregates are then incubated with compounds which compete with the [^3H]-radiolabelled ligand for binding to the aggregates. The readout is a scintillation based MicroBeta measurement of radioligand bound to aggregates. The activity was indicated as: +++, <100 nM; ++, 100-500 nM, +, >500 nM.

[2] = molecular target: VHL complex (VHL, Elongin B, Elongin C, Cul2, Rbx1) (Homo sapiens (Human), UniProt P40337); assay: VHL SPR assay; type: binding; details: immobilized VHL complex; read-out: VHL SPR Kd
Chain of VHL complex (VHL, Elongin B, Elongin C, Cul2, Rbx1) (P40337 whole entry, looked up): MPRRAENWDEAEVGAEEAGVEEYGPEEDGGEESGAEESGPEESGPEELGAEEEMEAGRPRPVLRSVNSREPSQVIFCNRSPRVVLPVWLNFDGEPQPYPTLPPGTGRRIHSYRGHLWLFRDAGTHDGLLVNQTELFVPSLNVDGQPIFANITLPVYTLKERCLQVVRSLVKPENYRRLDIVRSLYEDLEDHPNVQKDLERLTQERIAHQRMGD
Chain of VHL complex (VHL, Elongin B, Elongin C, Cul2, Rbx1) (Q15370 whole entry partner, looked up): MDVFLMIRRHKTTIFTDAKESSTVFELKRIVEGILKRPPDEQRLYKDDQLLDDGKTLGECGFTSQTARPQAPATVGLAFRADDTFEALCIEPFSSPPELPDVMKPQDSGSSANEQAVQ
Chain of VHL complex (VHL, Elongin B, Elongin C, Cul2, Rbx1) (Q15369 whole entry partner, looked up): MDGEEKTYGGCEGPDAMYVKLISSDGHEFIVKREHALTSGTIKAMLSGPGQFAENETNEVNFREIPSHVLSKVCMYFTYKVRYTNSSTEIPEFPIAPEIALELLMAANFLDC
Chain of VHL complex (VHL, Elongin B, Elongin C, Cul2, Rbx1) (Q13617 whole entry partner, looked up): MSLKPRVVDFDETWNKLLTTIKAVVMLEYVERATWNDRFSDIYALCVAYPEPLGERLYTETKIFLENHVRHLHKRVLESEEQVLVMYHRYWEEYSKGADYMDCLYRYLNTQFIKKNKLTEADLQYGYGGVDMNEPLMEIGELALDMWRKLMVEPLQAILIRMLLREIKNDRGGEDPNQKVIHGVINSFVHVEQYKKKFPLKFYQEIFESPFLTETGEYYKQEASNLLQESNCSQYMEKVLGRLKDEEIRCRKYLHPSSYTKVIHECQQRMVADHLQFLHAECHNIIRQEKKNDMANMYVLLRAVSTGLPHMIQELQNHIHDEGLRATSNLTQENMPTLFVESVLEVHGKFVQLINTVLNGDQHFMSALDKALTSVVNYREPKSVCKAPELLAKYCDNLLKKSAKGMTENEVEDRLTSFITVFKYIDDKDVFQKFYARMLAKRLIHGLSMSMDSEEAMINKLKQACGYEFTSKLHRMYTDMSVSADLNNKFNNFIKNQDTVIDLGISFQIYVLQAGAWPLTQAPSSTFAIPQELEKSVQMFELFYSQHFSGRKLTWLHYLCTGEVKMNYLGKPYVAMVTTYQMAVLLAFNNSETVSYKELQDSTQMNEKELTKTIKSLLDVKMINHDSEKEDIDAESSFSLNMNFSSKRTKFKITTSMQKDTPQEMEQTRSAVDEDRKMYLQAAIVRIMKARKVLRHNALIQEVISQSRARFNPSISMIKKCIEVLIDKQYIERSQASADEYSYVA
Chain of VHL complex (VHL, Elongin B, Elongin C, Cul2, Rbx1) (P62877 whole entry partner, looked up): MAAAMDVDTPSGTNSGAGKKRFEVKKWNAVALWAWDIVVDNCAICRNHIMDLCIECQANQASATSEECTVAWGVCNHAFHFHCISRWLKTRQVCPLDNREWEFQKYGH
Text: (§1) Surface Plasmon Resonance (SPR) assays have been developed to test the affinity (KD) of VHL or CRBN-based compounds to respective recombinant ligase complex/domain.
(§2) The assays are based on surface plasmon resonance (SPR), which enables to measure the changes of the local refractive index due to changes of molecular mass on a gold chip surface in the case of a binding event and in a flowing system. To detect binding between both partners, the respective E3 ligase is immobilized to the chip surface, while the test compounds are flown over the chip surface at a steady velocity. The detected changes in the RU response are indicative of the binding event and are concentration dependent.
(§3) These tags provide the anchor for the capturing process to either an NTA or Streptavidin coated chip surface (immobilization level of 3,000-5,000 RU). Because of the rather complex structure of the VHL complex, it was additionally coupled to the chip surface by amino coupling to prevent any protein loss by disruption of the complex in the flowing system.
(§4) To detect binding of compounds and extract dissociation constants KD for the tested compounds to the immobilized E3 ligase, concentration response curves of the compounds were recorded. Compounds were usually tested in 10-pt dilutions up to 20 μM final concentration in assay buffer and were flown over the chip at 30 μL/min. The contact time for each cycle includes 90 s for association and 200 s for dissociation of compounds.
(§5) In the following tables, the Kd values are indicated as: +++, <100 nM; ++, 100-500 nM, +, >500 nM.

[3] = molecular target: HTT-Exon1-Q73-EGFP in HeLa cells (aggregated HTT) (Homo sapiens (Human), UniProt P42858, INS38QQQQQQQQQQQQQQQQQQQQQQQQQQQQQQQQQQQQQQQQQQQQQQQQQQQQ); assay: HTT degradation assay, aggregated HTT MSD assay; type: cell-based; details: HeLa cells transfected with Exon1-Q73-EGFP, 22 hr, 0.01-10 μM
Chain of HTT-Exon1-Q73-EGFP in HeLa cells (aggregated HTT) (P42858 other isoform, or with tags, fused parts or gaps limits assumed, stated change not applied): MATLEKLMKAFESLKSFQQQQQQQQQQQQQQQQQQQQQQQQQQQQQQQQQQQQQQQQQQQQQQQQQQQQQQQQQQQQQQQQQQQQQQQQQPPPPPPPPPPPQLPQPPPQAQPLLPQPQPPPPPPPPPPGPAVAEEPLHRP
Method: (§6) Compounds described herein were tested for efficacy in HTT-lowering in human HeLa cells transiently overexpressing HTT-Exon1-polyQn proteins. For HTT degradation experiments HeLa cells were transiently transfected with pcDNA3.1(+)-hHTT-E1mixQn-EGFP plasmids for transient expression of HTT-Exon1 proteins of different polyQ length (HTT-exon1-Q23/73/145-EGFP). Two hours after transfection the cells were treated with test compounds at 7 concentrations from 0.01 μM to 10 μM (final assay concentration)+DMSO control. After a 22 hr incubation with test compounds the cells were washed with 1×PBS and lysed in MSD lysis buffer (150 mM NaCl; 20 mM Tris ph 7.5; 1 mM EDTA, 1 mM EGTA; 1% Triton X-100, 1× Phosphatase Inh. Cocktail 2, 1× Phosphatase Inh. Cocktail 3, 1× Protease Inh. Cocktail, 10 mM NaF, 1 mM PMSF) for 30 min on ice. […]
(§7) After an additional washing step, 10 μL per sample were transferred to each well of the antibody-coated MSD plate and incubated with shaking for 1 h at RT. […] After washing three times with washing buffer, 35 μL of read buffer T with surfactant (Meso Scale Discovery) were added to each well. […] The obtained readout is the MSD signal intensity for each well. […]

[4] = molecular target: HTT-Exon1-Q73-EGFP in HeLa cells (soluble mHTT) (Homo sapiens (Human), UniProt P42858, INS38QQQQQQQQQQQQQQQQQQQQQQQQQQQQQQQQQQQQQQQQQQQQQQQQQQQQ); assay: HTT degradation assay, soluble mHTT MSD assay; type: cell-based; details: HeLa cells transfected with Exon1-Q73-EGFP, 22 hr, 0.01-10 μM
Chain of HTT-Exon1-Q73-EGFP in HeLa cells (soluble mHTT) (P42858 other isoform, or with tags, fused parts or gaps limits assumed, stated change not applied): as the sequence (P42858 other isoform, or with tags, fused parts or gaps limits assumed, stated change not applied) above
Method: as §6, §7

[5] = molecular target: mouse CRBN thalidomide binding domain (mCRBN-TBD) (Mus musculus (Mouse), UniProt Q8C7D2); assay: CRBN SPR assay; details: immobilized mCRBN-TBD
Chain of mouse CRBN thalidomide binding domain (mCRBN-TBD) (Q8C7D2 321-429): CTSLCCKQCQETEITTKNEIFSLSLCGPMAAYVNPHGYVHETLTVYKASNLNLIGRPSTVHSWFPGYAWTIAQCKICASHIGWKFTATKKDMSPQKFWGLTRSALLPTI
Text: as §1, §2, §3, §4, §5

[6] = class symbols, read-out: Q46_RBA IC50

| SMILES | IC50 [1] | Kd [2] | Reduction of aggregated mHTT Exon1-Q73 levels [3] | Reduction of soluble mHTT Exon1-Q73 levels [4] | Kd [5] | IC50 [1, 6] |
| --- | --- | --- | --- | --- | --- | --- |
| CNc1c(-c2cn3c(n2)sc2cc(OCCOCC(=O)N[C@H](C(=O)N4C[C@H](O)C[C@H]4C(=O)NCc4ccc(-c5scnc5C)cc4)C(C)(C)C)ccc23)nc2cc(C#N)ccn12 [Compound 1] | < 100 nM | 100 to 500 nM | confirmed | confirmed | – | – |
| CNc1c(-c2cn3c(n2)sc2cc(OCCOCC(=O)N[C@@H](C(=O)N4C[C@@H](O)C[C@@H]4C(=O)NCc4ccc(-c5scnc5C)cc4)C(C)(C)C)ccc23)nc2cc(C#N)ccn12 [Compound 10] | < 100 nM | – | – | less active | – | – |
| Cn1nc(-c2nc3cc(OCc4ccc(OCCOCCOCCNc5cccc6c5C(=O)N(C5CCC(=O)NC5=O)C6=O)cn4)ccc3o2)ccc1=O (centres unmarked) [Compound 31, 2-(2,6-Dioxopiperidin-3-yl)-4-({2-[2-(2-{[6-({[2-(1-methyl-6-oxo-1,6-dihydropyridazin-3-yl)-1,3-benzoxazol-5-yl]oxy}methyl)pyridin-3-yl]oxy}ethoxy)ethoxy]ethyl}amino)-2,3-dihydro-1H-isoindole-1,3-dione] | < 100 nM | – | – | – | 100 to 500 nM | – |
| Cn1nc(-c2nc3cc(NC(=O)c4ccc(OCCOCCOCCOCCOCCOCCNc5cccc6c5C(=O)N(C5CCC(=O)NC5=O)C6=O)cn4)ccc3o2)ccc1=O (centres unmarked) [Compound 32] | < 100 nM | – | – | – | 100 to 500 nM | – |
| Cn1nc(-c2nc3cc(NC(=O)c4ccc(OCCOCCOCCNc5cccc6c5C(=O)N(C5CCC(=O)NC5=O)C6=O)cn4)ccc3o2)ccc1=O (centres unmarked) [Compound 33, 5-{2-[2-(2-{[2-(2,6-Dioxopiperidin-3-yl)-1,3-dioxo-2,3-dihydro-1H-isoindol-4-yl]amino}ethoxy)ethoxy]ethoxy}-N-[2-(1-methyl-6-oxo-1,6-dihydropyridazin-3-yl)-1,3-benzoxazol-5-yl]pyridine-2-carboxamide] | < 100 nM | – | – | – | 100 to 500 nM | – |
| Cn1nc(-c2nc3cc(NC(=O)c4ccc(OCCOCCOCCOCCOCCOCCOCCOCCOCCOCCOCCOCCNc5cccc6c5C(=O)N(C5CCC(=O)NC5=O)C6=O)cn4)ccc3o2)ccc1=O (centres unmarked) [Compound 34] | – | – | – | – | > 500 nM | < 100 nM |
| Cn1nc(-c2nc3cc(NC(=O)c4ccc(OCCOCCOCCOCCNc5cccc6c5C(=O)N(C5CCC(=O)NC5=O)C6=O)cn4)ccc3o2)ccc1=O (centres unmarked) [Compound 36] | < 100 nM | – | – | – | 100 to 500 nM | – |
| Cn1nc(-c2nc3cc(NC(=O)c4ccc(OCCOCCOCCOCCOCCOCCOCCOCCOCCOCCOCCOCCOCCOCCOCCOCCNc5cccc6c5C(=O)N(C5CCC(=O)NC5=O)C6=O)cn4)ccc3o2)ccc1=O (centres unmarked) [Compound 37] | – | – | – | – | 100 to 500 nM | < 100 nM |
| Cn1nc(-c2nc3cc(NC(=O)c4ccc(OCCOCCOCCOCCOCCOCCOCCOCCOCCNc5cccc6c5C(=O)N(C5CCC(=O)NC5=O)C6=O)cn4)ccc3o2)ccc1=O (centres unmarked) [Compound 38] | < 100 nM | – | – | – | 100 to 500 nM | – |
| CN1C(=O)CCC(N2C(=O)c3cccc(NCCOCCOCCOCCOCCOCCOc4ccc(C(=O)Nc5ccc6oc(-c7ccc(=O)n(C)n7)nc6c5)nc4)c3C2=O)C1=O (centres unmarked) [Compound 39] | < 100 nM | – | – | – | > 500 nM | – |
| CN1C(=O)CCC(N2C(=O)c3cccc(NCCOCCOCCOCCOCCOCCOCCOCCOCCOCCOCCOCCOc4ccc(C(=O)Nc5ccc6oc(-c7ccc(=O)n(C)n7)nc6c5)nc4)c3C2=O)C1=O (centres unmarked) [Compound 40] | – | – | – | – | > 500 nM | < 100 nM |
| CN1C(=O)CCC(N2C(=O)c3cccc(NCCOCCOCCOc4ccc(C(=O)Nc5ccc6oc(-c7ccc(=O)n(C)n7)nc6c5)nc4)c3C2=O)C1=O (centres unmarked) [Compound 70] | < 100 nM | – | – | – | > 500 nM | – |
